From patent publication US7091346B1, “Purine derivatives and processes for their preparation” (Novartis AG, priority 1995, dated 2006)
Values joined by “and” are separate entries in the source; they are usually repeats but may differ in a detail not shown here. Identical values can stand only once. Counter-ions that a name gives are not always drawn.

First: COc1cccc(Nc2nc(NN)nc3c2ncn3C(C)C)c1.Cl
Second: COc1cccc(Nc2nc(NCCCO)nc3c2ncn3C(C)C)c1 [Example 27, 2-(3-hydroxy-propyl-amino)-6-(3-methoxy-phenyl-amino)-9-isopropyl-9H-purine]
The melting point of the first is higher: 250 °C for the first, 128 to 129 °C for the second.

First: CCn1cnc2c(Nc3cccc(Cl)c3)nc(NCC(C)(C)N)nc21.Cl
Second: CCn1cnc2c(Nc3cccc(Cl)c3)nc(NCC(C)N)nc21 (stereo not shown) [Example 47, 2-(2-amino-propyl-amino)-6-(3-chloro-phenyl-amino)-9-ethyl-9H-purine]
The melting point of the first is higher: 196 °C for the first, 119 to 120 °C for the second.

Going from `CCn1cnc2c(Nc3cccc(C#N)c3)nc(NCCN)nc21.Cl` to `CCn1cnc2c(Nc3cccc(F)c3)nc(NCCO)nc21` [Example 92, 2-(2-hydroxy-ethyl-amino)-6-(3-fluoro-phenyl-amino)-9-ethyl-9H-purine], the melting point falls from 200 °C to 184 °C.

Compared with `CC(C)n1cnc2c(Nc3cccc(Cl)c3)nc(NCCN)nc21` (as salt: ammonium) [Example 4, 2-(2-Amino-ethylamino)-6-(3-chloro-phenyl-amino)-9-isopropyl-9H-purine], `CCn1cnc2c(Nc3cccc(Cl)c3)nc(NC[C@@H](C)O)nc21` [Example 88, 6-(3-chloro-phenyl-amino)-9-ethyl-2-[(R)-2-hydroxy-propylamino]-9H-purine] is higher in melting point: 55 to 56 °C for the first, 161 °C for the second.

Compared with `CCn1cnc2c(Nc3cccc(Cl)c3)nc(N(CCO)CCO)nc21` [Example 2, 6-(3-chloro-phenylamino)-2-(di-[2-hydroxy-ethyl]-amino)-9-ethyl-9H-purine], `CCn1cnc2c(Nc3cccc(Cl)c3)nc(N(CCO)C3CCCCC3)nc21` [Example 62, 6-(3-chloro-phenyl-amino)-2-[N-cyclohexyl-N-(2-hydroxy-ethyl)-amino]-9-ethyl-9H-purine] is lower in melting point: 148 to 149 °C for the first, 125 to 128 °C for the second.

First: CCn1cnc2c(Nc3cccc(Cl)c3)nc(NCc3ccccc3)nc21 [Example 10, 2-benzylamino-6-(3-chloro-phenyl-amino)-9-ethyl-9H-purine]
Second: CCn1cnc2c(Nc3cccc(Cl)c3)nc(NCCc3ccccc3)nc21 [Example 11, 2-(2-phenyl-ethyl-amino)-6-(3-chloro-phenyl-amino)-9-ethyl-9H-purine]
The melting point of the first is lower: 88 to 90 °C for the first, 151 to 152 °C for the second.

First: CCn1cnc2c(Nc3cccc(Cl)c3)nc(NCCCOC)nc21 [Example 12, 2-(3-methoxy-propyl-amino)-6-(3-chloro-phenyl-amino)-9-ethyl-9H-purine]
Second: CCn1cnc2c(Nc3cccc(Cl)c3)nc(NC[C@H](C)O)nc21 [Example 89, 6-(3-chloro-phenyl-amino)-9-ethyl-2-[(S)-2-hydroxy-propylamino]-9H-purine]
The melting point of the first is lower: 93 to 94 °C for the first, 161 °C for the second.

Compared with `CCn1cnc2c(Nc3cccc(Cl)c3)nc(NCC3CCCO3)nc21` (stereo not shown) [Example 15, 2-(tetrahydrofurfuryl-amino)-6-(3-chloro-phenyl-amino)-9-ethyl-9H-purine], `CCn1cnc2c(Nc3cccc(Cl)c3)nc(NC3CCCCC3)nc21` [Example 85, 6-(3-chloro-phenyl-amino)-2-cyclohexylamino-9-ethyl-9H-purine] is higher in melting point: 84 to 86 °C for the first, 143 °C for the second.

First: CCn1cnc2c(Nc3cccc(Cl)c3)nc(NCCc3ccccn3)nc21 [Example 16, 2-[2-(2-pyridyl)-ethyl-amino]-6-(3-chloro-phenyl-amino)-9-ethyl-9H-purine]
Second: CCn1cnc2c(Nc3cccc(Cl)c3)nc(NCCc3c[nH]c4ccccc34)nc21 [Example 20, 2-[2-(3-indolyl)-ethyl-amino]-6-(3-chloro-phenyl-amino)-9-ethyl-9H-purine]
The melting point of the first is higher: 152 to 153 °C for the first, 106 to 108 °C for the second.

First: CCn1cnc2c(Nc3cccc(Cl)c3)nc(N3CCC(CCN)CC3)nc21 [Example 18, 2-[4-(2-amino-ethyl)-piperidin-1-yl]-6-(3-chloro-phenyl-amino)-9-ethyl-9H-purine]
Second: CCn1cnc2c(Nc3cccc(Cl)c3)nc(N3CCC(O)CC3)nc21 [Example 72, 6-(3-chloro-phenyl-amino)-9-ethyl-2-(4-hydroxy-piperidino)-9H-purine]
The melting point of the first is lower: 182 to 184 °C for the first, 198.7 °C for the second.

Compared with `CCn1cnc2c(Nc3cccc(Cl)c3)nc(N(C)C3(O)CCCCC3)nc21` [Example 22, 6-(3-chloro-phenyl-amino)-2-([1-hydroxy-cyclohex-1-yl]-methylamino)-9-ethyl-9H-purine], `CCn1cnc2c(Nc3cccc(Cl)c3)nc(N3CCCCC3)nc21` [Example 82, 6-(3-chloro-phenyl-amino)-9-ethyl-2-piperidino-9H-purine] is lower in melting point: 143 to 145 °C for the first, 126 °C for the second.

Compared with `CCn1cnc2c(Nc3cccc(Cl)c3)nc(N3CCNCC3)nc21` [Example 23, 6-(3-chloro-phenylamino)-9-ethyl-2-piperazino-9H-purine], `CCn1cnc2c(Nc3cccc(Cl)c3)nc(N3CCCC(N)C3)nc21` (stereo not shown) [Example 66, 2-(3-amino-piperidin-1-yl)-6-(3-chloro-phenyl-amino)-9-ethyl-9H-purine] is lower in melting point: 181.5 to 182.5 °C for the first, 165 °C for the second.

Compared with `CCn1cnc2c(Nc3cccc(C(=O)NCCCO)c3C)nc(NCCCO)nc21` [Example 25, 9-ethyl-2-(3-hydroxy-propyl-amino)-6-[3-[(3-hydroxy-propyl)-aminocarbonyl]-2-methyl-phenyl-amino]-9H-purine], `COc1cccc(Nc2nc(NCCCO)nc3c2ncn3CCO)c1` [Example 28, 9-(2-hydroxy-ethyl)-2-(3-hydroxy-propyl-amino)-6-(3-methoxy-phenyl-amino)-9H-purine] is lower in melting point: 138 to 142 °C for the first, 132 to 133 °C for the second.

First: COc1cc(Nc2nc(NCCCO)nc3c2ncn3C)cc(OC)c1OC [Example 30, 2-(3-hydroxy-propyl-amino)-6-(3,4,5-trimethoxy-phenyl-amino)-9-methyl-9H-purine]
Second: CC(C)n1cnc2c(Nc3ccc(F)cc3)nc(NCCO)nc21 [Example 96, 6-(4-fluoro-phenyl-amino)-2-(2-hydroxy-ethyl-amino)-9-isopropyl-9H-purine]
The melting point of the first is higher: 166 to 167 °C for the first, 139 °C for the second.

First: CCn1cnc2c(Nc3cccc(Cl)c3)nc(N3CCC[C@H]3CO)nc21 [Example 40, 6-(3-chloro-phenyl-amino)-9-ethyl-2-[(S)-2-hydroxymethyl-pyrrolidin-1-yl]-9H-purine]
Second: CCn1cnc2c(Nc3cccc(Cl)c3)nc(N3CCC[C@@H]3CN)nc21 [Example 46, 2-[(R)-2-Aminomethyl-pyrrolidin-1-yl]-6-(3-chloro-phenyl-amino)-9-ethyl-9H-purine]
The melting point of the first is higher: 169 °C for the first, 126 to 129 °C for the second.

Compared with `CCn1cnc2c(Nc3cccc(Cl)c3)nc(Nc3cccc(N)c3)nc21` [Example 42, 2-[3-amino-phenylamino]-6-(3-chloro-phenyl-amino)-9-ethyl-9H-purine], `CCn1cnc2c(Nc3cccc(Cl)c3)nc(N[C@@H](C)C(N)=O)nc21` [Example 49, 2-[(S)-1-carbamoyl-ethylamino]-6-(3-chloro-phenyl-amino)-9-ethyl-9H-purine] is lower in melting point: 205 °C for the first, 117 to 121 °C for the second.

First: CCn1cnc2c(Nc3cccc(Cl)c3)nc(N3CCCC(NC=O)C3)nc21 (stereo not shown) [Example 48, 6-(3-chloro-phenyl-amino)-9-ethyl-2-(3-formylamino-piperidin-1-yl)-9H-purine]
Second: CCn1cnc2c(Nc3cccc(Cl)c3)nc(N3CCC4(CC3)OCCO4)nc21 [Example 54, 6-(3-chloro-phenyl-amino)-2-(1,4-dioxa-8-azaspiro[4.5]dec-8-yl)-9-ethyl-9H-purine]
The melting point of the first is higher: 184.3 °C for the first, 159 to 161 °C for the second.

First: CCn1cnc2c(Nc3cccc(Cl)c3)nc(N[C@H]3CC[C@H](O)CC3)nc21 [Example 65, 6-(3-chloro-phenyl-amino)-9-ethyl-2-(trans-4-hydroxy-cyclohexyl-amino)-9H-purine]
Second: CC[C@@H](CO)Nc1nc(Nc2cccc(Cl)c2)c2ncn(CC)c2n1 [Example 83, 6-(3-chloro-phenyl-amino)-9-ethyl-2-[(S)-1-hydroxy-but-2-yl-amino]-9H-purine]
The melting point of the first is lower: 116.5 °C for the first, 203 °C for the second.

Going from `CCn1cnc2c(Nc3cccc(Cl)c3)nc(N3C(C)CNCC3C)nc21` (stereo not shown) [Example 74, 6-(3-chloro-phenylamino)-2-[(2,6-dimethyl)-piperazino]-9-ethyl-9H-purine] to `CC[C@H](CO)Nc1nc(Nc2cccc(Cl)c2)c2ncn(CC)c2n1` [Example 84, 6-(3-chloro-phenyl-amino)-9-ethyl-2-[(R)-1-hydroxy-but-2-yl-amino)-9H-purine], the melting point rises from 183 °C to 200 °C.

`CC(C)n1cnc2c(Nc3ccc(F)cc3)nc(NCCN)nc21.Cl` showed a melting point of over 250 °C.
`CCn1cnc2c(Nc3ccc(F)cc3)nc(NCCN)nc21.Cl` showed a melting point of over 250 °C.
For `CCn1cnc2c(Nc3cccc(C(F)(F)F)c3)nc(NCCCO)nc21` [Example 24, 9-Ethyl-2-(3-hydroxy-propyl-amino)-6-(3-trifluoromethyl-phenyl-amino)-9H-purine], the melting point was 136 °C and 136 to 137 °C.
In the case of `CCn1cnc2c(Nc3cccc(Cl)c3)nc(N3CCC[C@@H]3C(N)=O)nc21` [Example 45, 2-[(R)-(−)-2-carbamoyl-pyrrolidin-1-yl]-6-(3-chloro-phenyl-amino)-9-ethyl-9H-purine], the melting point is reported as over 230 °C.
In the case of `CCn1cnc2c(Nc3cccc(Cl)c3)nc(N(C)C(N)=O)nc21` [Example 53, 2-[carbamoyl-methyl-amino]-6-(3-chloro-phenyl-amino)-9-ethyl-9H-purine], the melting point is reported as over 220 °C.
Work on `CCn1cnc2c(Nc3cccc(Cl)c3)nc(N3CCC[C@H]3C(N)=O)nc21` [Example 64, 2-[(S)-2-carbamoyl-pyrrolidin-1-yl]-6-(3-chloro-phenyl-amino)-9-ethyl-9H-purine] yielded a melting point of over 240 °C.
Molecule `CC(C)n1cnc2c(Nc3cccc(F)c3)nc(NCCN)nc21` [Example 91, 2-(2-Amino-ethyl-amino)-6-(3-fluoro-phenyl-amino)-9-isopropyl-9H-purine] has a melting point of over 250 °C.
In the case of `CCn1cnc2c(Nc3cccc(C(F)(F)F)c3)nc(NCCN)nc21` [Example 95, 2-(2-amino-ethyl-amino)-9-ethyl-6-(3-trifluoromethyl-phenyl-amino)-9H-purine], the melting point is reported as over 250 °C.
